Data: article PMC3855619 (Biochemistry, 2013)

Target: GI 77862362; decaprenyl diphosphate synthase [Rhodobacter capsulatus] (Rhodobacter capsulatus, UniProt Q07D00)
Assay: product chain-length by TLC with […]IPP
Format: biochemical

GI 77862362; decaprenyl diphosphate synthase [Rhodobacter capsulatus], sequence (Q07D00 1-333): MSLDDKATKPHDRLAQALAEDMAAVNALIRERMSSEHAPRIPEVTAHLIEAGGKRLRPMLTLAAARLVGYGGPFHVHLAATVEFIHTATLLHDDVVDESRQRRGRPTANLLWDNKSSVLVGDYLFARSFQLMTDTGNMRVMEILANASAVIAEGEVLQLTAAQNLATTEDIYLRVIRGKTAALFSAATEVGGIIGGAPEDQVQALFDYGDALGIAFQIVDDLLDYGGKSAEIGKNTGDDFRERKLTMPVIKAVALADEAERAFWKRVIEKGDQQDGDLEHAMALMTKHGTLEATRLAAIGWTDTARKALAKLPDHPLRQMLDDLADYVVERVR

SMILES: C=C(C)CCOP(=O)(O)OP(=O)(O)O [IPP]
- product chain-length by TLC with [14C]IPP: different ratios of IPP:DMAPP and IPP:FPP
